Assays:
Assay in all cases: relative viability (nuclei count vs DMSO), 5 days (fraction); higher = more cells survive
[1] = compound: O=C(CCCCCCNC(=O)c1cnc(N(c2ccccc2)c2ccccc2)nc1)NO [Ricolinostat] + NC(=O)Nc1cc(-c2cccc(F)c2)sc1C(=O)N[C@H]1CCCNC1 [AZD7762] (partner 0.2 µM)
Summary of the method: (§1)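 Each reported value is a median over duplicate plates. It expresses relative viability: treated-well nuclei count divided by vehicle-well nuclei count. Lung cancer cell lines in 1536-well plates were dosed by pin tool a day after seeding, alone with one drug or with a fixed anchor-drug dose plus five library-drug doses (not always all listed) in √10 steps, and nuclei were counted after 5 days.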

[2] = compound: CC1=CN2C(=O)C=C(N=C2C(=C1)C(C)NC3=CC=CC=C3)N4CCOCC4 [TGX 221] + Nc1nc2[nH]cc(CCc3ccc(C(=O)N[C@@H](CCC(=O)O)C(=O)O)cc3)c2c(=O)[nH]1 [Pemetrexed] (partner 0.2 µM)
Summary of the method: as §1

[3] = compound: CC1=CN2C(=O)C=C(N=C2C(=C1)C(C)NC3=CC=CC=C3)N4CCOCC4 [TGX 221] + CC1(C)CCC(c2ccc(Cl)cc2)=C(CN2CCN(c3ccc(C(=O)NS(=O)(=O)c4ccc(N[C@H](CCN5CCOCC5)CSc5ccccc5)c(S(=O)(=O)C(F)(F)F)c4)cc3)CC2)C1 [Navitoclax] (partner 0.5 µM)
Summary of the method: as §1

[4] = compound: CC1=CN2C(=O)C=C(N=C2C(=C1)C(C)NC3=CC=CC=C3)N4CCOCC4 [TGX 221] + CC(=O)c1c(C)c2cnc(Nc3ccc(N4CCNCC4)cn3)nc2n(C2CCCC2)c1=O [Palbociclib] (partner 0.5 µM)
Summary of the method: as §1

NCI-H1792
relative viability ([1]; first compound 0.253 µM): 0.716 | relative viability ([1]; first compound 0.8 µM): 0.581 | relative viability ([1]; first compound 2.53 µM): 0.375 | relative viability ([2]; first compound 0.08 µM): 0.795 | relative viability ([2]; first compound 0.253 µM): 0.695 | relative viability ([2]; first compound 0.8 µM): 0.557 | relative viability ([2]; first compound 2.53 µM): 0.549 | relative viability ([2]; first compound 8 µM): 0.802 | relative viability ([3]; first compound 0.08 µM): 0.549 | relative viability ([3]; first compound 0.253 µM): 0.713 | relative viability ([3]; first compound 0.8 µM): 0.591 | relative viability ([3]; first compound 2.53 µM): 0.62 | relative viability ([3]; first compound 8 µM): 0.625 | relative viability ([4]; first compound 0.08 µM): 0.593 | relative viability ([4]; first compound 0.253 µM): 0.625 | relative viability ([4]; first compound 0.8 µM): 0.654 | relative viability ([4]; first compound 2.53 µM): 0.57 | relative viability ([4]; first compound 8 µM): 0.582
